From patent US20250367164A1, “THERAPEUTIC COMPOSITIONS FOR SKIN DISORDERS AND WOUND REPAIR” (UNIVERSITY OF MIAMI, priority 2022, published 2025)

Key:
MRSA USA300 = test: In vitro MRSA internalization in human keratinocytes; assay type: cell-based, MRSA USA300 in primary human keratinocytes
Experimental: For all internalization assays, MRSA USA300 strain was used. In vitro pathogen internalization: Primary human keratinocytes were seeded at 5×10^4 in triplicates and allowed to adhere overnight. The following day, they were inoculated with MRSA USA300 conjugated to a pH sensitive dye (pHrodo iFL STP ester, Life Technologies) at 1×10^6 CFU/ml for 1 hr in presence or absence of 1 mM MβCD, prior to washing with PBS. They were then either subject to live cell imaging or washed with lysostaphin for 1 hr (in order to kill any extracellular bacteria), lysed in hypotonic solution and seeded onto blood agar plates in serial dilutions in order to determine relative CFU counts. Ex vivo human skin: Human skin specimens from reduction surgery were obtained and wounded. Briefly, using a biopsy punch 4-mm acute wounds were made in the skin specimens (n=4 per treatment), and either pre-treated in presence or absence of 2 mM MβCD, followed by inoculation with 10 ul of MRSA 10^8 CFU/ml for 24 hrs. Skin was then washed with PBS, incubated with lysostaphin for Ihr in order to kill any extracellular bacteria, lysed with hypotonic solution and subsequent lysate seeded onto blood agar plates in serial dilutions. […]

VEGF = VEGF ELISA on snap frozen mouse wounds; assay type: in vivo, mice; details: same mouse wounds, FIG. 14
Experimental: Amount of VEGF in snap frozen mouse wounds was analyzed using VEGF ELISA as per manufacturer's instructions. Up to 8 wounds were utilized per condition in duplicates and amount of VEGF quantified using internal standards provided by the kit.
ELISA was used to measure levels of VEGF from the same wounds in order to validate that the upregulation at the mRNA level coincides with increased VEGF protein level.

[1] = test system: 5-mm round excisional dorsal wounds of db/db mice; test: Splinted excisional wound healing in db/db mice treated with hydrogel scaffolds; assay type: in vivo; details: FIG. 10
Experimental: All animal care and use procedures were approved by the University of Miami Institutional Animal Care and Use Committee (IACUC #19-097). Under anesthesia, 12×7-weeks of age female db/db mice had their dorsal skin hair clipped, depilated and their fasting blood glucose level measured for 3 consecutive days, to validate hyperglycemia (>300 mg/dL was deemed as hyperglycemic). Subsequently, mice's dorsal skin was cleaned with antiseptic solution and four 5-mm round excisional wounds were made, two on each side of the dorsal midline (n=8 wounds per treatment). Dorsal wounds were treated with cylindrical hydrogel scaffolds of 8 mm×2 mm for either 7 or 16 days. Same hydrogel scaffold fabrication procedure was employed (as previously described) and with the same treatment and control formulations as the ex vivo human skin wound models. Scaffolds were fixed on top of the wounds with 14-mm square splints containing a 10 mm circular central opening. Cyanoacrylate glue was used to secure the splints just long enough for 4 non-continuous sutures to adhere the […] to the wound and prevent wound contraction. […] Diabetic mice wounds' closure rate was assessed by histologically analyzing re-epithelialization and epidermal thickness through H&E staining with an Olympus VS120 microscope (Olympus, Tokyo, JPN) and Image J software (NIH, MD, USA). […]

methyl-β-cyclodextrin [MβCD]
CFU counts of internalized bacteria (MRSA USA300; Cav1 overexpressing and Cav1 knockout human keratinocytes, cell lysate on blood agar plates): lowered the CFU counts | intracellular MRSA (MRSA USA300; treatment administered after MRSA infection, keratinocytes): expelled a majority of intracellular MRSA

hydroxypropyl-β-cyclodextrin [HβCD]
levels of VEGF (VEGF): increased levels of VEGF

platelet derived growth factor [PDGF]
wound closure at the conclusion of the experiment [1]: not fully closed
